Experimental data published in PubChem BioAssay AID2008 (University of Pittsburgh Molecular Library Screening Center, 2009).
Active and inactive are the calls of the source. No rule for the calls is given here.

Test system: Leishmania major promastigote growth inhibition
Assay: antileishmanial activity against L. major promastigotes – EC50, dose response (AID 2008)

`O=C1CC(c2ccccc2Br)c2cc3c(cc2N1)CCC3` (stereo not drawn) gave an EC50 of 253 nM.

Compound `COc1cc(CNCc2cccs2)ccc1OCc1ccccc1` has an EC50 of 162 nM.

With `COC(=O)[C@@H]1[C@@H](C(=O)OC)C2(c3ccccc3-c3ccccc32)N(c2ccc(Cl)cc2)N1C#N` the EC50 was > 5000 nM (inactive).

With `CCN(CC)C(=S)SSC(=S)N(CC)CC` the EC50 was 263 nM.

`Cc1ccc2c(c1)c(=O)c1c3n2CCN(C(=O)CCl)C3CC1` (stereo not drawn) showed an EC50 of 1970 nM.

Work on `C[C@H]1C[C@@H](C)C(=O)[C@@H]([C@H](O)CC2CC(=O)NC(=O)C2)C1` yielded an EC50 of 1 nM.

`O=C1C2CCN(CC2)C1Cc1ccc(OCCOc2ccccc2)cc1` (stereo not drawn) showed an EC50 of 272 nM.

With `COC(=O)c1cccc(Cn2c(Cl)c(/C=N/Nc3ccccc3C)sc2=O)c1` the EC50 was 528 nM.

`O=C(CCl)Nc1cccc(-c2cnc3ccccc3n2)c1` was tested, and the EC50 was 1110 nM.

`c1ccc(-c2cc(-c3nnc4sc(-c5ccccn5)nn34)[nH]n2)cc1` gave an EC50 of 4090 nM.

With `Nc1nn(-c2ccccc2)c(N)c1N=Nc1ccc2c(c1)OCO2` the EC50 was 846 nM.

In the case of `N=C(N)SCc1cn(-c2ccccc2)nc1-c1ccc(Br)cc1`, the EC50 is reported as 1300 nM.

With `CCOC(=O)c1c(-c2ccc(F)cc2)csc1NC(=O)CCN1CCOCC1` the EC50 was 176 nM.

In the case of `Cn1nc(-c2ccc(Cl)cc2)nc2c(=O)n(C)c(=O)nc1-2`, the EC50 is reported as > 5000 nM (inactive).

`COc1ccc(/C=C/c2cc[n+](C(=O)Cc3ccccc3)cc2)cc1` showed an EC50 of 49.6 nM.

`O=S(=O)(CCSc1nc2ccccc2s1)c1nc2ccccc2s1` gave an EC50 of 716 nM.

Work on `O=C(Nc1ccc(Cl)cn1)c1ccc([N+](=O)[O-])o1` yielded an EC50 of 205 nM.

`Clc1ccccc1C(c1ccccc1)(c1ccccc1)n1ccnc1` gave an EC50 of 145 nM.

Work on `COCCCN1CCN(c2nnc3n2-c2sc(Br)cc2C(c2ccccc2Cl)=NC3)CC1` yielded an EC50 of 595 nM.

`Cc1cc(C)nc(/N=c2/ssnc2Cl)c1` showed an EC50 of 353 nM.

`O=[N+]([O-])c1cc(-c2nnc(C34CC5CC(CC(C5)C3)C4)o2)cc([N+](=O)[O-])c1` gave an EC50 of 115 nM.

With `[O-][N+]1=c2ccc(Nc3ccccc3)cc2=NC12CCCCC2` the EC50 was 840 nM.

For `COc1ccc(C2=NCC(CSc3nnc(-c4ccc5c(c4)OCO5)o3)S2)cc1` (stereo not drawn), the EC50 was 187 nM.
